These results are taken from article PMC5025856, “A Novel Assay for Screening Inhibitors Targeting HIV Integrase LEDGF/p75 Interaction Based on Ni^2+ Coated Magnetic Agarose Beads” (Scientific Reports, 2016).

Like-named read-outs stand apart in the source and are kept apart here. Some results are limits rather than exact numbers.

The target in assay [1] is T1, PPI between HIV-1 IN CCD and LEDGF/p75 IBD (Homo sapiens, UniProt O75475).
T1 construct: The IN CCD protein used contained HIV IN residues 50–212 fused with an C-terminal His6-tag; a fusion of LEDGF/p75 residues 347–471 with the N-terminal GST-tag; made in house; host or cells: bacterial expression vectors pET28a (IN CCD) and pGEX-4T-1 (IBD)
Kind of assay: IN CCD-LEDGF/p75 IBD PPI assay based on Ni-NTA magnetic agarose beads. Type of assay: binding. Here is the method:
In the assay, GST–tagged LEDGF/p75 IBD (yellow) is mixed with His6-tagged IN CCD (green) at the desired concentrations. After incubation at room temperature, a double-tagged PPI complex with N-terminal GST-tag and C-terminal His6-tag is established between two protein partners. The PPI complex is captured by Ni^2+-coated magnetic beads (red) through His6-tag, followed by the addition of alkaline phosphatase conjugated anti-GST antibody (dark red). Therefore, the product could be measured by the alkaline phosphatase conjugated-coupled enzyme reaction (Fig. 1A).
The IN CCD-LEDGF/p75 IBD interaction assay was developed based on Ni-NTA Magnetic Agarose Beads (BEAVER Nano-technologies Co., Ltd. Suzhou, China). The assay was optimized for use in 96-well nonbinding surface microplates (Corning, New York, USA) in a final volume of 100 μl per well. Briefly, the assay works as follows. Compounds and proteins were diluted to 10× and 5× working solutions in the 1× assay buffer (25 mM Tris-HCl, pH 7.4, 150 mM NaCl, 1 mM MgCl2, 0.05% BSA[v/w]) respectively. Firstly, 10 μl compound dilution, 50 μl 1× buffer, 20 μl each of protein dilutions were pipetted into the wells. The plate was sealed and left to incubate at 200 rpm for 3 h at RT. Secondly, 10 μl of Ni-NTA Magnetic Agarose Beads were added followed by incubating at 900 rpm for 30 min at RT. Thirdly, the wells holding the mixture were placed on a magnetic concentrator, the supernatant was discarded, and the wells were washed 3 times with 200 μl wash buffer (50 mM sodium phosphate, pH 7.4, 150 mM NaCl, 0.005% tween-20[v/v], 20 mM imidazole). Fourthly, the wells were incubated with 100 μl of a 1:4000 solution of mouse anti-GST antibody (Sigma, USA) in antibody dilution buffer (50 mM Sodium Phosphate, pH 7.4, 150 mM NaCl, 0.005% Tween-20[v/v], 0.5%[w/v] BSA) at 900 rpm for 30 min at 37 °C, followed by washing three times. Fifthly, the wells were incubated with 100 μl of a 1:5000 solution of rabbit anti-mouse IgG alkaline phosphatase conjugated antibody (Sigma, USA) in antibody dilution buffer at 900 rpm for 30 min at 37 °C, followed by washing 3 times. Lastly, the color reaction was developed with 100 μl substrate buffer (10 mM diethanolamine, pH 9.8, 0.5 mM MgCl2, 8 mM p-NPP) for 30 min at 37 °C. The absorbance ([…]) of each well was measured in an Enspire multimode reader (PerkinElmer, USA). The reproducibility, signal stability, and robustness of this PPI assay were determined to ensure its compatible for HTS. Furthermore, IL23, an IN CCD-LEDGF/p75 IBD PPI inhibitor, was used to validate the assay efficiency.
In total, 1000 compounds selected at random from ‘The Spectrum Collection’ were purchased from National compound resource center. The library, which is composed of 2,320 compounds in 10 mM DMSO solution, lists primarily FDA-approved human therapeutic drugs, drug-like compounds, and natural products. Each compound was diluted in DMSO to reach a concentration of 300 μM, which was used as the 10× compound stock. In all screening campaigns, the negative control was based on the use of PPI binding mutant controls (single-point mutation) that would prevent the PPI from forming, and the positive control contained 10% (v/v) DMSO only. The negative and positive control with 8 replicates wells each located randomly among the 96 wells of each plate.
The z′ factor, signal-to-noise ratio (S/N), signal-to-background ratio (S/B), signal window (SW), and coefficient of variation (CV) were calculated and then compared with the minimum pass criteria (z′ >0.5, S/N>10, S/B > 3, SW >2, CV < 20%)[39][40][41][42]. The “hits” for PPI assays were classified as compounds that led to more than 60% disruption of a PPI complex. All HTS data were processed using Excel (Microsoft Corp.) and visualized using Prism 5.0 (GraphPad Software).

For assay [2], the target named is T2, His6-tagged GST protein (Schistosoma japonicum, UniProt P08515).
T2 construct: made in house; host or cells: bacterial expression vector pGEX-4T-1
Kind of assay: Non-specificity counterscreen with His6-GST protein. The conditions noted are these: dose-response, 10 nM His6-tagged GST protein. Here is the method: The false positive compound identified in this HTS may affect the assay by forming hydrogen bonds interaction with His6-tag of IN CCD or forming chelating complexes with Ni^2+-ion covering magnetic beads surface. […] Any compound that interfered with bead or with the His6-tag of double-tagged protein would result in a decreased signal in the counterscreen assay.
A counterscreen was carried out as described above, with the replacement of purified HIV-1 IN CCD and LEDGF/p75 IBD with 10 nM His6-tagged GST protein.

Assay [3] deals with LEDGF/p75 (Homo sapiens, UniProt O75475). Kind of assay: Biolayer interferometry (BLI) binding to LEDGF/p75. The note with it: ForteBIO Octet, 1:1 Langmuir global fit, read-out: dissociation constant Kd. Here is the method:
Biolayer interferometry (BLI) was used to study the kinetics of dexlansoprazole binding to LEDGF/p75 on a ForteBio Octet, according to the manufacturer’s instructions and published methods. Streptavidin biosensors tips were pre-wetted with buffer and immobilized with biotinylated protein. The biosensors were then transferred into wells containing dexlansoprazole in serial dilutions from 32 μM to 1 μM concentrations. Protein–ligand binding was measured by monitoring the changes in the interferometric profile of the wavelength of light passing through the sensor. Binding curves were analyzed using ForteBIO software, which performs a global fit according to the 1:1 Langmuir model to obtain the kinetic rate constants for each set of interaction conditions.

Assay [4] has as its system cancer xenograft models. Also noted: method as in PMID 25093583. The conditions noted are these: primary screen hit in cancer xenograft models; cited from earlier work.
The target of assay [5] is HIV-1 integrase catalytic core domain (IN CCD), residues 50-212, F185K, C-terminal His6-tag (HIV-1). Kind of assay: ELISA; ELISA-based magnetic bead assay: GST-IBD and His6-CCD mixed in solution (25 mM Tris-HCl pH 7.4, 150 mM NaCl, 1 mM MgCl2, 0.05% BSA, 3 h RT), complex captured on Ni-NTA magnetic agarose beads by the His6-tag, detected with anti-GST antibody and alkaline phosphatase conjugate, absorbance read-out (A405); optimal conditions, ratio 1:1.

Assay [6] has as its target HIV-1 IN CCD W131E (residues 50-212, F185K, W131E), C-terminal His6-tag (HIV-1). The assay is described as above.
[7] abbreviates: at 30 μM for each proton-pump inhibitor, PPI between LEDGF/p75 IBD and IN CCD, read-out: Inhibition (%).
Where [8] appears, read: IN CCD-LEDGF/p75 IBD PPI, magnetic-beads assay, dose response, read-out: IC50.

As to `Cc1c(OCC(F)(F)F)ccnc1C[S@@+]([O-])c1nc2ccccc2[nH]1` [Dexlansoprazole], in assay [1], 4.8 µM corresponded to half-maximal inhibition (IC50). Moreover, the inhibition at 30 µM was determined as 75.2% in assay [1] (setting [7]) and 90.3% in assay [1] (confirmatory screening, triplicate, 30 μM, read-out: inhibitory rate). Also, in assay [1] (qualitative statement), the “inhibitory activity against IN CCD-LEDGF/p75 IBD interaction (in words)” value is listed as “moderate inhibitory activity”. In assay [2], the “effect on the assay system (counterscreen)” value was “almost had no effect”. In addition, the Kd in assay [3] was found to be 0.33 µM. The anti-cancer activity result in assay [4] is recorded as “poor”.

As to `COc1ccc2nc([S@@+]([O-])Cc3ncc(C)c(OC)c3C)[nH]c2c1` [Esomeprazole], the IC50 in assay [1] (setting [8]) is more than 30 µM. For the same molecule, the inhibition at 30 µM in assay [1] (setting [7]) was 22%.

For `Cc1c(OCC(F)(F)F)ccnc1C[S+]([O-])c1nc2ccccc2[nH]1` (centres unmarked) [Lansoprazole], in assay [1] (setting [7]), the inhibition at 30 µM was -86.2%.

On to `COc1ccc2[nH]c([S+]([O-])Cc3ncc(C)c(OC)c3C)nc2c1` (centres unmarked) [Omeprazole], for which the IC50 in assay [1] (setting [8]) was more than 30 µM. The inhibition at 30 µM in assay [1] (setting [7]) was 26.2%.

Regarding `COc1ccnc(C[S+]([O-])c2nc3ccc(OC(F)F)cc3[nH]2)c1OC` (centres unmarked) [Pantoprazole], the inhibition at 30 µM in assay [1] (setting [7]) is -23.9%.

In the case of `COCCCOc1ccnc(C[S+]([O-])c2nc3ccccc3[nH]2)c1C` (centres unmarked) [Rabeprazole], the IC50 in assay [1] (setting [8]) was more than 30 µM. Moreover, the inhibition at 30 µM in assay [1] (setting [7]) stood at 14.5%.

As for `COc1ccc2[nH]c([S+]([O-])Cc3ncc(C)c(OC)c3C)nc2n1` (centres unmarked) [Tenatoprazole], in assay [1] (setting [8]), the IC50 was more than 30 µM. In assay [1] (setting [7]), the inhibition at 30 µM turned out to be 33.6%.

For the molecule “LEDGF/p75 IBD D366N (residues 347-471), N-terminal GST-tag (from UniProt O75475 347-471) (domain or fragment)”, the A405 signal in assay [5] was less than 0.01 A405.

“LEDGF/p75 integrase binding domain (LEDGF/p75 IBD), residues 347-471, N-terminal GST-tag (from UniProt O75475 347-471) (domain or fragment)”: the A405 signal was less than 0.01 A405 in assay [6] and 0.66 A405 in assay [5].
